Measured values published in patent US20230020999A1, “ANTI-CD30 ANTIBODY-DRUG CONJUGATES AND THEIR USE FOR THE TREATMENT OF HIV INFECTION” (priority 2019, published 2023).
Non-standard residues stand in square brackets, D forms with d. Residues, ends and D or L forms follow the SMILES beside them. *: point of attachment. Dolaproine = CO[C@@H]([C@@H]1CCCN1)[C@@H](C)C(=O)O; Dil = CC[C@H](C)[C@H](NC)[C@@H](CC(=O)O)OC; X1 = C[C@@H](N*)[C@@H](O)c1ccccc1; NMeV = CN[C@H](C(=O)O)C(C)C

What was measured:
[1] = tested on: CD30+ cell lines; conditions: in vitro; cited from earlier work
[2] = tested on: Hodgkin disease xenograft; conditions: SCID mouse xenograft models of Hodgkin disease; cited from earlier work
[3] = target: permeability glycoprotein (Pgp) (Homo sapiens, UniProt P08183); conditions: cited from earlier work
[4] = tested on: memory CD8 T cells; assay: Free MMAE titration on activated T cell populations, viable cell counts; assay type: cell-based; conditions: Memory CDS; CD3/CD28 beads and IL-2 (10 ng/ml), 4 days; cell counts relative to untreated control
Description: (§1) To evaluate the effect of free MMAE on the various T cell populations, naïve (CD45RA+, CD45RO−) and memory (CD45RA−, CD45RO+) CD4 and CD8 T cells and CD25^hi CD127^lo T regulatory cells were enriched from healthy donor leukopaks and activated with CD3/CD28 beads and IL-2 (10 ng/ml) in round-bottom 96-well tissue culture plates for 4 days with a titration of free monomethyl auristatin E (MMAE). […] Data are represented as cell counts relative to untreated control.

[5] = tested on: T regulatory cells (Treg); assay: as above; assay type: cell-based; conditions: CD3/CD28 beads and IL-2 (10 ng/ml), 4 days, cell counts relative to untreated control
Description: as §1

[6] = tested on: memory CD4 T cells; assay: as above; assay type: cell-based; conditions: CD3/CD28 beads and IL-2 (10 ng/ml), 4 days, cell counts relative to untreated control
Description: as §1

[7] = tested on: naïve CD8 T cells; assay: as above; assay type: cell-based; conditions: Naïve CDS; CD3/CD28 beads and IL-2 (10 ng/ml), 4 days; cell counts relative to untreated control
Description: as §1

[8] = tested on: naïve CD4 T cells; assay: as above; assay type: cell-based; conditions: CD3/CD28 beads and IL-2 (10 ng/ml), 4 days, cell counts relative to untreated control
Description: as §1

[9] = target: CYP3A4 (Homo sapiens, UniProt P08684); conditions: cited from earlier work
[10] = tested on: Treg; assay: Effect of BV on activated T cell viability (FACS); assay type: cell-based
Description: (§2) To evaluate the effect of BV on activated T cell viability, naïve, memory, and Treg subsets were driven to proliferate in vitro in the presence of BV or control antibody-drug conjugate (ADC). Briefly, T cell subsets were mixed with CD3/CD28 beads (4:1)+IL-2 10 ng/ml in RPMI 10% FCS and distributed −2.0×10^4 cells/well into a 96-well round-bottom plate. A titration of BV or control IgG-MMAE was added to replicate wells, for a final volume of 200 μl, and plates were incubated at 37° C. for 4 days. On the final day of the assay, cells were stained with Zombie® Aqua Viability Dye and a non-competing monoclonal μCD30-PE (Biolegend) for FACS analysis. […] Cell counts are shown as the percent of untreated control.

[11] = tested on: memory CD4 T cells; assay: Effect of BV on activated T cell viability (FACS); assay type: cell-based
Description: as §2

[12] = tested on: Tregs; conditions: subjects with CD30+ lymphomas; cited from earlier work
[13] = CD3/CD28 beads + IL-2, BV titration, 4 days, n=4, FIG. 1A

CYP3A4, sequence (P08684 whole entry): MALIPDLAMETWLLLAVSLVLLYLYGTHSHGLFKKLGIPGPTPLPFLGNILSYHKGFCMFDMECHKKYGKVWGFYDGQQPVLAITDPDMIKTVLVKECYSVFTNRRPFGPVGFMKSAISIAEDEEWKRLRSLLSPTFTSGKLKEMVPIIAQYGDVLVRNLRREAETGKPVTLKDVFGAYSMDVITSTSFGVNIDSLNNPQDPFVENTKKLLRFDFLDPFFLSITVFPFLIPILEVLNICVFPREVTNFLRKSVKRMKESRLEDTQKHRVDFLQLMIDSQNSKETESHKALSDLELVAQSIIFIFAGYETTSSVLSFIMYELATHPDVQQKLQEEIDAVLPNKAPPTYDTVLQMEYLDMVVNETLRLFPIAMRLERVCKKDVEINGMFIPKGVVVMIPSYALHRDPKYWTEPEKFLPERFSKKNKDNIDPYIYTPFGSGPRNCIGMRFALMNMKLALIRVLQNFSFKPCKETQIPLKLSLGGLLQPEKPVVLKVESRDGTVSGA
permeability glycoprotein (Pgp), sequence (P08183 whole entry): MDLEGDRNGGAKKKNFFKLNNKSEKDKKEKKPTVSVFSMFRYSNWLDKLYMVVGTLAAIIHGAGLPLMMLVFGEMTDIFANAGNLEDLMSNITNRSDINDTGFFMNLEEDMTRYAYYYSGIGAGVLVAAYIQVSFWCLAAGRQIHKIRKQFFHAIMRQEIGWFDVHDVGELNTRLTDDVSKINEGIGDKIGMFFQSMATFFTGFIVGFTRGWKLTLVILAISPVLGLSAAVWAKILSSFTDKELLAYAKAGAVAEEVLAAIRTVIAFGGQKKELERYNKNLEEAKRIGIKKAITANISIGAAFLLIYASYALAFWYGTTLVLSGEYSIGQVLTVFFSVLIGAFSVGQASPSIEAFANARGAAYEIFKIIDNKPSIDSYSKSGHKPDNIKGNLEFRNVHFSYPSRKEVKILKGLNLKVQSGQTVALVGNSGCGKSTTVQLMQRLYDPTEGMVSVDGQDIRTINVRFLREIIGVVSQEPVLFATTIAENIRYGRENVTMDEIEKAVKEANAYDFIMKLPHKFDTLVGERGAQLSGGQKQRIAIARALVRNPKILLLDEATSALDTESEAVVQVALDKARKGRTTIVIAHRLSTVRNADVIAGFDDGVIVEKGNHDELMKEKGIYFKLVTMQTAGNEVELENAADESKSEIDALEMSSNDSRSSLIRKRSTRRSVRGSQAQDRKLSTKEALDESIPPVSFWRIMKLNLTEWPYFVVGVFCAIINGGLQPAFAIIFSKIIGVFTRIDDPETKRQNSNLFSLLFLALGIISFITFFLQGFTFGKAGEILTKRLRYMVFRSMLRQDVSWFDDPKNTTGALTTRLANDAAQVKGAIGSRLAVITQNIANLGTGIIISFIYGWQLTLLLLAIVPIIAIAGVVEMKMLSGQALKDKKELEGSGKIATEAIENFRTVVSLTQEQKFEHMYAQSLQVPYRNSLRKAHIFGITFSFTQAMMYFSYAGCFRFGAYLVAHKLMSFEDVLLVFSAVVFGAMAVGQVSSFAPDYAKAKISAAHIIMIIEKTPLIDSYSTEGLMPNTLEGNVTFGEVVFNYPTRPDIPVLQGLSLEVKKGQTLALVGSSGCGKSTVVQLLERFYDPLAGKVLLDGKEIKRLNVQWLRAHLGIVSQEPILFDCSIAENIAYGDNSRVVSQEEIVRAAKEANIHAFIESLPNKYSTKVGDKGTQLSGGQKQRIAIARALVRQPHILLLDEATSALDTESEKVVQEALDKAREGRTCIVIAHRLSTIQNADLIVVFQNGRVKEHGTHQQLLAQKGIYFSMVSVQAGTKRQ

Molecule: cAC10
- growth of CD30+ cell lines [1]: induces growth arrest
- antitumor activity [2]: pronounced antitumor activity

Molecule: CC[C@H](C)[C@@H]([C@@H](CC(=O)N1CCC[C@H]1[C@H](OC)[C@@H](C)C(=O)N[C@H](C)[C@@H](O)c1ccccc1)OC)N(C)C(=O)[C@@H](NC(=O)[C@@H](NC)C(C)C)C(C)C [MMAE, monomethyl auristatin E] (H-[NMeV]V[Dil][Dolaproine]-X1)
- Pgp substrate [3]: known Pgp substrate
- IC50 [4]: 0.77 nM
- IC50 [5]: 0.43 nM
- IC50 [6]: 0.55 nM
- IC50 [7]: 1.96 nM
- IC50 [8]: 1.13 nM
- metabolism [9]: primarily metabolized by CYP3A4

B1: brentuximab vedotin (conjugate)
VH: QIQLQQSGPEVVKPGASVKISCKASGYTFTDYYITWVKQKPGQGLEWIGWIYPGSGNTKYNEKFKGKATLTVDTSSSTAFMQLSSLTSEDTAVYFCANYGNYWFAYWGQGTQVTVSA
VL: DIVLTQSPASLAVSLGQRATISCKASQSVDFDGDSYMNWYQQKPGQPPKVLIYAASNLESGIPARFSGSGSGTDFTLNIHPVEEEDAATYYCQQSNEDPWTFGGGTKLEIK
- total viable Treg cell numbers [10, 13]: dose-dependent reduction
- numbers of viable CD30+ cells ([10]; CD30+ Treg, end of 4-day assay, FIG. 1B): enhanced depletion
- total viable memory CD4 T cell numbers [11, 13]: dose-dependent reduction
- numbers of viable CD30+ cells ([11]; CD30+ memory CD4 T cells, end of 4-day assay, FIG. 1B): enhanced depletion
- change in Tregs [12]: reduction in Tregs
